Test results from paper PMC4041848, “Differential Effects of Omeprazole and Lansoprazole Enantiomers on Aryl Hydrocarbon Receptor in Human Hepatocytes and Cell Lines” (PLoS ONE, 2014).
Read-outs that look alike come from different tables or passages of the source.

What was measured:
[1] = test system: CYP1A1 mRNA; assay: CYP1A1 mRNA induction in primary human hepatocytes (qRT-PCR); conditions: 100 µM
Excerpt: (§1) Primary human hepatocytes used in this study were obtained from two sources: (i) from multiorgan donor HH52; the use of liver cells of donor HH52 was approved by “Ethical committee at the Faculty Hospital Olomouc”,and it was in accordance with Transplantation law #285/2002 Sb; “Ethical committee at the Faculty Hospital Olomouc” waived the authors from obtaining consent from the next of kin, regarding human hepatocytes obtained from liver donor HH52. (ii) long-term human hepatocytes in monolayer Batch HEP220770 (person), Batch HEP220774 (person) were purchased from Biopredic International (Biopredic International, Rennes, France). Cells were cultured in serum-free medium. Cultures were maintained at 37°C and 5% CO2 in a humidified incubator.
(§2) Total RNA was isolated using TRI Reagent (Molecular Research Center, Cincinnati, OH, USA). cDNA was synthesized from 1000 ng of total RNA using M-MLV Reverse Transcriptase (Finnzymes, Espoo, Finland) at 42°C for 60 min in the presence of random hexamers (Takara, Shiga, Japan). qRT-PCR was carried out using LightCycler FastStart DNA MasterPLUS SYBR Green I (Roche Diagnostic Corporation, Prague, Czech Republic) on a Light Cycler 480 II apparatus (Roche Diagnostic Corporation). CYP1A1, CYP1A2 and GAPDH mRNAs were determined as described previously. Measurements were performed in triplicates. Gene expression was normalized to GAPDH as a housekeeping gene.
We examined a capability of omeprazole and lansoprazole to induce CYP1A1 and CYP1A2 mRNA and protein in primary human hepatocytes, which is a more physiological and metabolically competent cell model. Human hepatocytes were treated for 24 h or 48 h with TCDD (5 nM), vehicle (DMSO; 0.1% V/V) and tested compounds.
Figure 3 Effects of omeprazole and lansoprazole enantiomers on CYP1A1 mRNA, protein and EROD activity in primary human hepatocytes. Panel A and Panel B: RT-PCR analyses of CYP1A1 and CYP1A2 mRNA and western blots of CYP1A1 and CYP1A2 from two different cultures (HH52 and Hep220770) are shown. Human hepatocytes were incubated for 24 h (mRNA analysis) or 48 (protein analysis) with S-OME, R-OME, rac-OME, S-LAN, R-LAN, rac-LAN, TCDD and vehicle (DMSO; 0.1% v/v). RT-PCR data are the mean ± SD from triplicate measurements and are expressed as fold induction over vehicle-treated cells. Data were normalized to GAPDH mRNA levels. Density of bands in western blots was quantified by densitometry and the values are indicated along with respective blots. Panel C: EROD and cytotoxicity: Human hepatocytes (culture Hep220774) were treated for 24 h with S-OME, R-OME, rac-OME, S-LAN, R-LAN, rac-LAN, TCDD and vehicle (DMSO; 0.1% v/v). Upper bar graph: An activity of 7-ethoxyresorufin- O-deethylase (EROD) was measured by fluorescent spectrophotometry with 530 nm excitation and 590 nm emission filters. Treatments were performed in triplicates. The data are expressed as fold induction over the value from control cells. Lower bar graph: A conventional MTT test was performed and absorbance was measured at 540 nm. Treatments were performed in triplicates. The data are expressed as percentage of viability of control cells.

[2] = MTT cytotoxicity test in AZ-AHR reporter cells; conditions: human
Description: (§3) A stably transfected gene reporter cell line AZ-AHR, derived from human hepatoma HepG2 cells transfected with a construct containing several AhR binding sites upstream of a luciferase reporter gene, was used for assessment of AhR transcriptional activity. Cells were incubated for 24 h with tested compounds and/or vehicle (DMSO; 0.1% v/v), in the presence or absence of TCDD (10 nM; AZ-AHR cells) or DEX (100 nM; AZ-GR cells). After the treatments, cells were lysed and luciferase activity was measured. In parallel, cell viability was determined by conventional MTT test.
(§4) In the first series of experiments, the cytotoxicity of tested compounds was assessed in gene reporter cell line AZ-AHR. For this purpose, the cells were incubated for 24 h with S-OME, R-OME, rac-OME, S-LAN, R-LAN and rac-LAN at concentration ranging from 100 pM to 250 µM. The vehicle was DMSO (0.1% v/v). After the treatment, a conventional MTT test was performed.
(§5) Figure 1 Effect of omeprazole and lansoprazole enantiomers on transcriptional activity of aryl hydrocarbon receptor AhR in human gene reporter cell line AZ-AHR. The cells were seeded in 96-well plates and stabilized for 16 h. Panels A and B: Cells were incubated for 24 h with S-OME, R-OME, rac-OME, S-LAN, R-LAN and rac-LAN at concentrations ranging from 10^−10 M to 10^−4 M. The vehicle was DMSO (0.1% v/v). After the treatment, MTT test was performed and absorbance was measured at 540 nm. Treatments were performed in triplicates. The data are the mean from experiments from six different passages of cells and are expressed as a percentage of viability of control cells. The values of IC50 were calculated and are indicated in a figure. Panels C - F: AZ-AHR cells were incubated for 24 h with S-OME, R-OME, rac-OME, S-LAN, R-LAN and rac-LAN at concentrations ranging from 10^−10 M to 10^−4 M in the absence (Panels C and D - agonist mode) or in the presence (Panels E and F- antagonist mode) of TCDD (5 nM). The vehicle was DMSO (0.1% v/v). After the treatments, cells were lysed and luciferase activity was measured. Treatments were performed in triplicates in five (agonist mode) or four (antagonist mode) independent cell passages. […] Data are expressed as a fold induction of luciferase activity over control cells (Panels C and D - agonist mode) or as a percentage of maximal induction attained by TCDD (Panels E and F- antagonist mode).

[3] = test system: aryl hydrocarbon receptor AhR; assay: AhR gene reporter assay, agonist mode; conditions: for EC50 at 24 h: human
Description: as §3, §5
Gene reporter assays were performed in two different experimental layouts. […] In antagonist mode, cells were incubated with increasing concentrations of tested compounds in combination with model agonist (TCDD; 5 nM), and half-maximal inhibitory concentrations (IC50) were calculated. […] The efficacy was calculated at concentration of compounds of 100 µM and compared to 5 nM TCDD (Figure 1C).

[4] = test system: CYP1A1/1A2 enzymes (EROD); assay: EROD activity in primary human hepatocytes; conditions: hepatocyte culture Hep220774, 24 h, 5 nM
Description: Figure 3 Effects of omeprazole and lansoprazole enantiomers on CYP1A1 mRNA, protein and EROD activity in primary human hepatocytes. Panel A and Panel B: RT-PCR analyses of CYP1A1 and CYP1A2 mRNA and western blots of CYP1A1 and CYP1A2 from two different cultures (HH52 and Hep220770) are shown. Human hepatocytes were incubated for 24 h (mRNA analysis) or 48 (protein analysis) with S-OME, R-OME, rac-OME, S-LAN, R-LAN, rac-LAN, TCDD and vehicle (DMSO; 0.1% v/v). RT-PCR data are the mean ± SD from triplicate measurements and are expressed as fold induction over vehicle-treated cells. Data were normalized to GAPDH mRNA levels. Density of bands in western blots was quantified by densitometry and the values are indicated along with respective blots. Panel C: EROD and cytotoxicity: Human hepatocytes (culture Hep220774) were treated for 24 h with S-OME, R-OME, rac-OME, S-LAN, R-LAN, rac-LAN, TCDD and vehicle (DMSO; 0.1% v/v). Upper bar graph: An activity of 7-ethoxyresorufin- O-deethylase (EROD) was measured by fluorescent spectrophotometry with 530 nm excitation and 590 nm emission filters. Treatments were performed in triplicates. The data are expressed as fold induction over the value from control cells. Lower bar graph: A conventional MTT test was performed and absorbance was measured at 540 nm. […] The data are expressed as percentage of viability of control cells. […]

[5] = test system: CYP1A1 mRNA; conditions: HepG2, 24 h
Description: as §2
Treatments were performed in triplicates.

[6] = test system: CYP1A1 protein; assay: CYP1A1 protein induction in primary human hepatocytes (western blot); conditions: hepatocyte culture HH52, 48 h
Excerpt: Primary human hepatocytes used in this study were obtained from two sources: (i) from multiorgan donor HH52; the use of liver cells of donor HH52 was approved by “Ethical committee at the Faculty Hospital Olomouc”,and it was in accordance with Transplantation law #285/2002 Sb; “Ethical committee at the Faculty Hospital Olomouc” waived the authors from obtaining consent from the next of kin, regarding human hepatocytes obtained from liver donor HH52. (ii) long-term human hepatocytes in monolayer Batch HEP220770 (person), Batch HEP220774 (person) were purchased from Biopredic International (Biopredic International, Rennes, France). Cells were cultured in serum-free medium. […]
Total protein extracts were prepared from cells cultured on 6-well plates. […] Supernatant was collected and the protein content was determined by the Bradford reagent. […] The density of bands was measured by densitometry. […]
Figure 3 Effects of omeprazole and lansoprazole enantiomers on CYP1A1 mRNA, protein and EROD activity in primary human hepatocytes. […] RT-PCR data are the mean ± SD from triplicate measurements and are expressed as fold induction over vehicle-treated cells. […] Density of bands in western blots was quantified by densitometry and the values are indicated along with respective blots. […] The data are expressed as fold induction over the value from control cells. […]

[7] = test system: CYP1A1 catalytic activity (EROD); assay: EROD catalytic activity in HepG2 cells; conditions: HepG2, 24 h, 5 nM
[8] = test system: CYP1A2 protein; assay: CYP1A2 protein induction in primary human hepatocytes (western blot); conditions: hepatocyte culture HH52, 48 h, 10 µM
Excerpt: as §1
Total protein extracts were prepared from cells cultured on 6-well plates. Cells were washed twice with ice-cold PBS and scraped into 1 ml of PBS. The suspension was centrifuged (4500 RPM/5 min/4°C) and the pellet was resuspended in 150 µl of ice-cold lysis buffer (150 mM NaCl; 10 mM Tris pH 7.2; 0.1% (w/v) SDS; anti-protease cocktail, 1% (v/v) Triton X-100; anti-phosphatase cocktail, 1% (v/v) sodium deoxycholate; 5 mM EDTA). […] Supernatant was collected and the protein content was determined by the Bradford reagent. […] The density of bands was measured by densitometry. […]
Figure 3 Effects of omeprazole and lansoprazole enantiomers on CYP1A1 mRNA, protein and EROD activity in primary human hepatocytes. […] RT-PCR data are the mean ± SD from triplicate measurements and are expressed as fold induction over vehicle-treated cells. […] Density of bands in western blots was quantified by densitometry and the values are indicated along with respective blots. […] Upper bar graph: An activity of 7-ethoxyresorufin- O-deethylase (EROD) was measured by fluorescent spectrophotometry with 530 nm excitation and 590 nm emission filters. […] The data are expressed as fold induction over the value from control cells. Lower bar graph: A conventional MTT test was performed and absorbance was measured at 540 nm. […] The data are expressed as percentage of viability of control cells.

[9] = test system: CYP1A2 mRNA; assay: CYP1A2 mRNA induction in primary human hepatocytes (qRT-PCR)
Excerpt: as §1
as §2, with “Gene expression was normalized to GAPDH as a housekeeping gene.” left out

[10] = set-up: method as in PMID 8710755, PMID 19298580; conditions: after oral administration of racemic drug; ref [8], [9]; cited from earlier work
[11] = test system: AZ-AHR cells; assay: MTT cytotoxicity test in AZ-AHR reporter cells; conditions: AZ-AHR cells, 24 h, MTT, concentrations up to 250 µM
Description: as §3, §4, §5

[12] = test system: aryl hydrocarbon receptor AhR; assay: AhR gene reporter assay, antagonist mode (with TCDD); conditions: read-out: AhR antagonist IC50; AZ-AHR cells, 24 h, in the presence of TCDD (5 nM), average of four passages
Description: as §3
Figure 1 Effect of omeprazole and lansoprazole enantiomers on transcriptional activity of aryl hydrocarbon receptor AhR in human gene reporter cell line AZ-AHR. The cells were seeded in 96-well plates and stabilized for 16 h. […] After the treatment, MTT test was performed and absorbance was measured at 540 nm. […] The data are the mean from experiments from six different passages of cells and are expressed as a percentage of viability of control cells. The values of IC50 were calculated and are indicated in a figure. […] After the treatments, cells were lysed and luciferase activity was measured. […] Data are expressed as a fold induction of luciferase activity over control cells (Panels C and D - agonist mode) or as a percentage of maximal induction attained by TCDD (Panels E and F- antagonist mode). […]

[13] = hepatocyte culture Hep220770, 24 h
[14] = AZ-AHR cells, 24 h, compared to 5 nM TCDD, calculated at 100 µM compound (stated for omeprazole)

## Cc1c(OCC(F)(F)F)ccnc1C[S+]([O-])c1nc2ccccc2[nH]1 (racemic) [rac-LAN, rac-lansoprazole]
[1]; [13]
  CYP1A1 mRNA induction: 358 fold
[2]
  IC50 at 24 h: > 250 µM
[3]; [14]
  AhR agonist efficacy: 22.8±5.6%
[3]
  EC50 at 24 h: 2.4 ± 0.1 µM

## Clc1cc2c(cc1Cl)Oc1cc(Cl)c(Cl)cc1O2 [TCDD, 2,3,7,8-tetrachlorodibenzo-p-dioxin]
[4]
  induction of EROD activity: approximately 15 fold
[3]; 5 nM TCDD, five consecutive passages, vs vehicle-treated cells
  induction of AhR-dependent luciferase activity, average: 354 fold
[5]; 5 nM, vs vehicle-treated cells
  CYP1A1 mRNA induction: approximately 230 fold
[6]
  CYP1A1 protein induction: drastic increase
[7]
  EROD activity, average increase: 22-23 fold

## Cc1c(OCC(F)(F)F)ccnc1C[S@@+]([O-])c1nc2ccccc2[nH]1 [R-LAN, R-lansoprazole]
[1]; hepatocyte culture HH52, 24 h
  CYP1A1 mRNA induction: 17 % of TCDD induction
[1]; [13]
  CYP1A1 mRNA induction: 575 fold
[2]
  IC50 at 24 h: > 250 µM
[8]
  CYP1A2 protein induction: strong induction
[3]; [14]
  AhR agonist efficacy: 23.0±10.0%
[3]
  EC50 at 24 h: 5.7 ± 2.9 µM
[9]; [13]
  effect on CYP1A2 mRNA relative to S-LAN: two times stronger
[5]; 100 µM
  CYP1A1 mRNA induction relative to S-LAN: four times stronger
  CYP1A1 mRNA induction relative to rac-LAN: two times stronger
[10]
  share of circulating drug: more than 80%
  systemic exposure relative to the S-enantiomer: 5 fold

## COc1ccc2nc([S@+]([O-])Cc3ncc(C)c(OC)c3C)[nH]c2c1 [R-OME, R-omeprazole]
[11]
  cytotoxicity: not cytotoxic
[3]
  AhR agonist efficacy: 48.6±26.8%
[3]; read-out: AhR agonist EC50, AZ-AHR cells, 24 h, luciferase, average of five passages
  EC50: 35.1 ± 3.7 µM
[9]; hepatocyte culture HH52, 24 h, 100 µM
  CYP1A2 mRNA induction: 71 % of TCDD induction
[12]
  IC50: 54.8 ± 25.9 µM
